From ChEMBL document CHEMBL1201862, “PubChem BioAssay data set” (2004)
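Protocol summary: plate cells (96-well), add compound at 5 concentrations, incubate 48 h, interpolate endpoints linearly. Here, GI50 denotes the concentration required for 50% inhibition of growth.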 Calls of active or inactive are those of the source. Cut-off read from the data, not from the text of the source: active = GI50 up to about 1.1 µM and inactive = higher.

Columns and labels:
Assay in all cases: growth of human tumour cells (NCI), 48 h
SK-MEL-5 = system: SK-MEL-5
MDA-MB-435 = system: MDA-MB-435
COLO 205 = system: COLO 205
HL-60 = system: HL-60
OVCAR-4 = system: OVCAR-4
SW-620 = system: SW-620
MDA-N = system: MDA-N
MOLT-4 = system: MOLT-4
HCT-15 = system: HCT-15
MDA-MB-231 = system: MDA-MB-231
DU-145 = system: DU-145
SF-268 = system: SF-268
BT-549 = system: BT-549
CAKI-1 = system: CAKI-1
OVCAR-8 = system: OVCAR-8
A549 = system: A549
SK-OV-3 = system: SK-OV-3
HCC 2998 = system: HCC 2998
SR = system: SR
A498 = system: A498

| SMILES | GI50 (SK-MEL-5) | GI50 (MDA-MB-435) | GI50 (COLO 205) | GI50 (HL-60) | GI50 (OVCAR-4) | GI50 (SW-620) | GI50 (MDA-N) | GI50 (MOLT-4) | GI50 (HCT-15) | GI50 (MDA-MB-231) | GI50 (DU-145) | GI50 (SF-268) | GI50 (BT-549) | GI50 (CAKI-1) | GI50 (OVCAR-8) | GI50 (A549) | GI50 (SK-OV-3) | GI50 (HCC 2998) | GI50 (SR) | GI50 (A498) |
| --- | --- | --- | --- | --- | --- | --- | --- | --- | --- | --- | --- | --- | --- | --- | --- | --- | --- | --- | --- | --- |
| Cn1c2ccccc2c(=NNc2cccc(C(=O)O)c2)c2ccccc21 | 14.7 µM (inactive) | 13.3 µM (inactive) | 12.2 µM (inactive) | 11.3 µM (inactive) | 12.4 µM (inactive) | 5.64 µM (inactive) | 16.1 µM (inactive) | 3.97 µM (inactive) | 15.3 µM | 11 µM (inactive) | 11.9 µM (inactive) | 10.9 µM (inactive) | 7.59 µM (inactive) | 25.1 µM (inactive) | 5.77 µM (inactive) | 5.75 µM (inactive) | 14.8 µM (inactive) | 3.3 µM (inactive) | – | – |
| CN1CCN(Cc2ccc(C(=S)Nc3ccccc3)s2)CC1 | 17.6 µM (inactive) | 31.9 µM (inactive) | 22.3 µM (inactive) | 19.9 µM (inactive) | 54.1 µM (inactive) | 26.7 µM (inactive) | 35.6 µM (inactive) | 36.8 µM (inactive) | 21 µM | – | > 100 µM (inactive) | > 100 µM (inactive) | 15.9 µM (inactive) | > 100 µM (inactive) | 14.5 µM (inactive) | 55 µM (inactive) | 86.1 µM (inactive) | 33.1 µM (inactive) | 21.2 µM (inactive) | 33.7 µM (inactive) |
| Nc1n[n+](CC(=O)c2ccccc2)c2sc(-c3ccccc3)nn12 | 48.6 µM (inactive) | 27.7 µM (inactive) | > 100 µM (inactive) | – | > 100 µM (inactive) | 36.8 µM (inactive) | 84.7 µM (inactive) | 90.6 µM (inactive) | 75.2 µM | > 100 µM (inactive) | > 100 µM (inactive) | 18.8 µM (inactive) | > 100 µM (inactive) | > 100 µM (inactive) | 78.2 µM (inactive) | > 100 µM (inactive) | > 100 µM (inactive) | – | – | > 100 µM (inactive) |
| Cc1ccc(S(=O)(=O)NC(=O)N[C@@H](Cc2c[nH]cn2)C(=O)O)cc1 | > 100 µM (inactive) | – | > 100 µM (inactive) | > 100 µM (inactive) | > 100 µM (inactive) | > 100 µM (inactive) | > 100 µM (inactive) | > 100 µM (inactive) | > 100 µM | > 100 µM (inactive) | > 100 µM (inactive) | > 100 µM (inactive) | > 100 µM (inactive) | – | > 100 µM (inactive) | > 100 µM (inactive) | > 100 µM (inactive) | – | – | – |
| CC(N)(/C=C/c1ccccc1)C(=O)O (stereo not given) | > 100 µM (inactive) | > 100 µM (inactive) | > 100 µM (inactive) | > 100 µM (inactive) | > 100 µM (inactive) | > 100 µM (inactive) | > 100 µM (inactive) | > 100 µM (inactive) | > 100 µM | > 100 µM (inactive) | – | > 100 µM (inactive) | > 100 µM (inactive) | > 100 µM (inactive) | > 100 µM (inactive) | > 100 µM (inactive) | > 100 µM (inactive) | – | > 100 µM (inactive) | > 100 µM (inactive) |
| COC(=O)C1(C(=O)OC)N=C(C)OC1c1ccccn1 (stereo not given) | > 100 µM (inactive) | > 100 µM (inactive) | > 100 µM (inactive) | > 100 µM (inactive) | > 100 µM (inactive) | > 100 µM (inactive) | > 100 µM (inactive) | > 100 µM (inactive) | > 100 µM | – | > 100 µM (inactive) | – | > 100 µM (inactive) | > 100 µM (inactive) | > 100 µM (inactive) | > 100 µM (inactive) | > 100 µM (inactive) | > 100 µM (inactive) | > 100 µM (inactive) | > 100 µM (inactive) |
